# Test results published in patent US4999424A, “GAR transformylase inhibitor” (The Pennsylvania State University, priority 1988, dated 1991).
# Experiments:
# [1] = target: T1, E. coli GAR TFase (Escherichia coli, UniProt P08179); assay: Fluorescence titration, dissociation constant for E. coli GAR TFase; assay type: binding; settings: average from three wavelengths (396, 400, 405 nm); standard error about 50 pM; 11 nM inhibitor, excitation 275 nm; read-out: thermodynamic dissociation constant, KD
# T1 construct: made in house; host or cells: E. coli TX393 with multicopy plasmid pJS85, or E. coli TX635 with lambda pL plasmid pJS119 or pJS167
# T1 sequence (P08179 1-212): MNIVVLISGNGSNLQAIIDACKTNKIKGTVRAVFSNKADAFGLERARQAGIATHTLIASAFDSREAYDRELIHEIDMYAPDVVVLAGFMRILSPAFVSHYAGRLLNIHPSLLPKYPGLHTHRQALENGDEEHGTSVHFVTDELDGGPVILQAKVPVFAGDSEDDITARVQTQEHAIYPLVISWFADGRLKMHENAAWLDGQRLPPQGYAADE
# Description: The thermodynamic dissociation constant, KD, for the E.β-TGDDF complex was measured by following the enhancement of the inhibitor's 395 nm fluorescence (excitation at 275 nm) upon binding to GAR TFase. A concentrated E. coli GAR TFase solution was added to an 11 nM solution of purified β-TGDDF; for each addition, the fluorescence at three different wavelengths (396, 400, and 405 nm) was measured. Fluorescence titration data was analyzed by the method of Taira and Benkovic, J. Med. Chem., 31, 129-137 (1988).
# (§1) In analyzing the biological activity of the compounds of the present invention, GAR TFase from E. coli was used. This enzyme behaves like the mammalian and avian enzyme with respect to substrate specificity, yet is a simple and effective system having only one biological activity. That is, unlike the avian trifunctional GAR TFase, the E. coli species has a sole function. This follows from the genetic evidence of Smith and Daum, J. Biol. Chem., 262, 10565-10569 (1987) as w®11 as the work of Schrimsher et al., Biochemistry, 25, 4366-4371 (1986) who have shown that […] from E. coli is a monofunctional protein, whereas, in chicken it belongs to a trifunctional protein containing, the activates: GAR SYNthase, GAR TFase, and AIR SYNthase.
# The E. coli GAR TFase binding constants for the compounds of the present invention and other folate analogs are shown in Table I below: […]
# [2] = target: T1, E. coli GAR TFase; assay: E. coli GAR TFase inhibition/activity assay (5,8-dideazafolate absorbance at 295 nm); assay type: biochemical; settings: E. coli GAR TFase, 26° C, 1 nM enzyme, saturating substrates
# Description: (§2) All assays were carried out by following the increase of 5,8-dideazafolate absorbence at 295 nm in buffered medium at 26° C. To initiate the reaction, enzyme (1 nM final concentration) was added to a mixture of saturating substrates and variable amounts of inhibitor. A characteristic family of curves was obtained, showing slow, tight-binding inhibition. See, Morrison, Trends Biochem. Sc., 7, 102 (1982) and Morrison, et al., Adv. Enzymology, Relat. Areas Mol. Biol., 57, 201-301 (1987).
# as §1
# The E. coli GAR TFase binding constants for the compounds of the present invention and other folate analogs are shown in Table I below:
# (§3) Table II illustrates the specificity of beta-TGDDF for GAR TFase in comparison with other reduced-folate utilizing enzymes. This test, was conducted using the same [I]/[E]ratios as stated previously.
# [3] = target: GAR TFase (avian) (Gallus gallus, UniProt P21872); assay: Avian GAR TFase inhibition; assay type: biochemical; settings: for Mode of inhibition: avian GAR TFase
# GAR TFase (avian), sequence (P21872 whole entry): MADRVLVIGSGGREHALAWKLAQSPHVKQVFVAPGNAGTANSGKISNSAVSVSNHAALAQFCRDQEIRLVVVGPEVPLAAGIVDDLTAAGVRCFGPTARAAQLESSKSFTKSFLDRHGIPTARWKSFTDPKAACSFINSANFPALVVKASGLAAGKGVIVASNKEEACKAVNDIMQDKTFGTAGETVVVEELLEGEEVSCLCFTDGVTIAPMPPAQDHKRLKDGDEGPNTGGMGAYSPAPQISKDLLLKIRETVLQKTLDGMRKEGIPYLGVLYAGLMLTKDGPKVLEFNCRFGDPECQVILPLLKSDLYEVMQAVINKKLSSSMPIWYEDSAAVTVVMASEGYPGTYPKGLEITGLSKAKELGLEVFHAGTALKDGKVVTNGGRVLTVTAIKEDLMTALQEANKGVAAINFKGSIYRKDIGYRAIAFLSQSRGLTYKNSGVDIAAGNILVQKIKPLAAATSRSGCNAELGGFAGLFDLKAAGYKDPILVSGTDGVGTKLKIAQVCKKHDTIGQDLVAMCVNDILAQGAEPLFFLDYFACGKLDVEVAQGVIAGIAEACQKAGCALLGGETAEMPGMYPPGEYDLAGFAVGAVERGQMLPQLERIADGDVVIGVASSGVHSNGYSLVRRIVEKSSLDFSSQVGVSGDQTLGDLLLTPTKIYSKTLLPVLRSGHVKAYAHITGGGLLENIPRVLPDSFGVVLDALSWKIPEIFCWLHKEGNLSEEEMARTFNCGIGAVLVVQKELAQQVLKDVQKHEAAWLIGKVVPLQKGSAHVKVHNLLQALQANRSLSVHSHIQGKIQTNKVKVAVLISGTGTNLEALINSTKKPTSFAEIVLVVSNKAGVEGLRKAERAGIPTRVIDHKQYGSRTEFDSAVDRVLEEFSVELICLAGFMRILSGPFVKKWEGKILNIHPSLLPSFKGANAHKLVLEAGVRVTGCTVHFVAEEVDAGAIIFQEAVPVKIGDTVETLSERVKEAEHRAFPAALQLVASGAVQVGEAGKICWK
# Description: as §2
# (§4) The specificity of beta-TGDDF for GAR TFase from species other than E. coli was assayed in a general manner by measuring the activity of GAR TFase at a concentration of 1 nM from avian, HeLa, and L121? sources in the presence of 20 nM beta-TGDDF.
# as §3
# [4] = target: T2, GAR TFase (L1210) (Mus musculus, UniProt Q64737); assay: L1210 GAR TFase inhibition; assay type: biochemical; settings: for Mode of inhibition: L1210 GAR TFase
# T2 construct: GAR TFase activity is the C-terminal domain of trifunctional Gart
# T2 sequence (Q64737 2-1010): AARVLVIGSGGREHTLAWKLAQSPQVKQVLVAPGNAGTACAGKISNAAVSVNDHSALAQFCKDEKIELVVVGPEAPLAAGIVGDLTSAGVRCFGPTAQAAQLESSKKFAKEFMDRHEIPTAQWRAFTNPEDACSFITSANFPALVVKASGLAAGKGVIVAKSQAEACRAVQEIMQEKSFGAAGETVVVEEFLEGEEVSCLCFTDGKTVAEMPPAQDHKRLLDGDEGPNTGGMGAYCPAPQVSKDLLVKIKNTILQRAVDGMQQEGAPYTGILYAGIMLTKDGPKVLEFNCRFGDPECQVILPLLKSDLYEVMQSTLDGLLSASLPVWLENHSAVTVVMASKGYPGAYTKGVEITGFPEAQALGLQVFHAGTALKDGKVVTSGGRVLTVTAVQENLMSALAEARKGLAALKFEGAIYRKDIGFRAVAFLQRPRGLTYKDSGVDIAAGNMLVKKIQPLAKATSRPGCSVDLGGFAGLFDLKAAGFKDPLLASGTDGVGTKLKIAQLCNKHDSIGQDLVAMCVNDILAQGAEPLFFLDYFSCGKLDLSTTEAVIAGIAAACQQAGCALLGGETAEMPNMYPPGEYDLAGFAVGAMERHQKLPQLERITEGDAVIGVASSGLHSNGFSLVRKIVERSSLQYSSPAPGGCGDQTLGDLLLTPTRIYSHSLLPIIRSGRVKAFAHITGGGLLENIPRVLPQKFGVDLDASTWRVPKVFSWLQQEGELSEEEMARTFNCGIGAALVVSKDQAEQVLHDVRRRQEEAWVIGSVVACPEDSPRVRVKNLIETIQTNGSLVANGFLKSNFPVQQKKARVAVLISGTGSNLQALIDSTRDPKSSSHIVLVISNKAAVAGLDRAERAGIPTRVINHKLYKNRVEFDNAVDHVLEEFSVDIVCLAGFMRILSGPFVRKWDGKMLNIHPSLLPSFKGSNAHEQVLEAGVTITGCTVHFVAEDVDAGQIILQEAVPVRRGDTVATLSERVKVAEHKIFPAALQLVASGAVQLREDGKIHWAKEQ
# Description: as §2, with “A characteristic family of curves was obtained, showing slow, tight-binding inhibition.” left out
# as §4
# This test, was conducted using the same [I]/[E]ratios as stated previously.
# E. coli GAR TFase was prepared and purified as described below. L1210 and HeLa GAR TFase were purified according to published procedures. AICAR TFase was prepared according to published procedures.
structure (smiles),measurement,setting,value
"Nc1nc2ccc(CN(C(=O)CSCC(=O)N[C@@H]3O[C@H](COP(=O)(O)O)[C@@H](O)[C@H]3O)c3ccc(C(=O)N[C@@H](CCC(=O)O)C(=O)O)cc3)cc2c(=O)[nH]1 [beta-TGDDF, N^10-[5'-phosphoribosyl-1'-β-amino-carbonylmethyl-1-thioacetyl]-5,8-dideazafolate]",Kd,[1],0.25 nM
same,Mode of inhibition,[2],"slow, tight-binding inhibitor"
same,Extent of inhibition,"[3]; 20 nM beta-TGDDF, 1 nM enzyme",inhibited by roughly the same magnitude
same,Mode of inhibition,[3],"inhibition of a slow, tight binding nature"
same,Mode of inhibition,[3]; listed as Beta-TGDDF,"slow, tight-binding inhibitor"
same,Extent of inhibition,"[4]; 20 nM beta-TGDDF, 1 nM enzyme",inhibited by roughly the same magnitude
same,Mode of inhibition,[4],"inhibition of a slow, tight binding nature"
same,Mode of inhibition,[4]; listed as Beta-TGDDF,"slow, tight-binding inhibitor"
